Values quoted from earlier work in patent US6686348B2, “Metalloprotease inhibitors” (Les Laboratoires Servier, priority 2000, dated 2004).

Tested on: ovarian cancers
Conditions: Becket et al., DDT 1996

For CNC(=O)[C@H](Cc1ccccc1)NC(=O)[C@H](CC(C)C)[C@H](CSc1cccs1)C(=O)NO [BB94], the “anti-tumour activity in clinical use” value is listed as “active against ovarian cancers”.
